Source: ChEMBL document CHEMBL1201862, “PubChem BioAssay data set” (2004)
Calls of active or inactive are those of the source.

What was measured:
[1] = Trypanosoma cruzi growth suppression in host cells – NIH3T3 host cells, beta-gal luminescence, confirmation (AID 2044); assay type: functional, cell-based;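 also: intracellular parasites grown in NIH/3T3 mouse fibroblasts as host cells; luminescent beta-galactosidase reporter signal from transgenic T. cruzi replicating inside host cells; inhibitors lower the luminescence signal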
Beta-galactosidase = Beta-galactosidase (Escherichia coli, UniProt Q8VNN2); assay: PubChem AID 485352; assay type: functional
Sequence of Beta-galactosidase (Q8VNN2 whole entry): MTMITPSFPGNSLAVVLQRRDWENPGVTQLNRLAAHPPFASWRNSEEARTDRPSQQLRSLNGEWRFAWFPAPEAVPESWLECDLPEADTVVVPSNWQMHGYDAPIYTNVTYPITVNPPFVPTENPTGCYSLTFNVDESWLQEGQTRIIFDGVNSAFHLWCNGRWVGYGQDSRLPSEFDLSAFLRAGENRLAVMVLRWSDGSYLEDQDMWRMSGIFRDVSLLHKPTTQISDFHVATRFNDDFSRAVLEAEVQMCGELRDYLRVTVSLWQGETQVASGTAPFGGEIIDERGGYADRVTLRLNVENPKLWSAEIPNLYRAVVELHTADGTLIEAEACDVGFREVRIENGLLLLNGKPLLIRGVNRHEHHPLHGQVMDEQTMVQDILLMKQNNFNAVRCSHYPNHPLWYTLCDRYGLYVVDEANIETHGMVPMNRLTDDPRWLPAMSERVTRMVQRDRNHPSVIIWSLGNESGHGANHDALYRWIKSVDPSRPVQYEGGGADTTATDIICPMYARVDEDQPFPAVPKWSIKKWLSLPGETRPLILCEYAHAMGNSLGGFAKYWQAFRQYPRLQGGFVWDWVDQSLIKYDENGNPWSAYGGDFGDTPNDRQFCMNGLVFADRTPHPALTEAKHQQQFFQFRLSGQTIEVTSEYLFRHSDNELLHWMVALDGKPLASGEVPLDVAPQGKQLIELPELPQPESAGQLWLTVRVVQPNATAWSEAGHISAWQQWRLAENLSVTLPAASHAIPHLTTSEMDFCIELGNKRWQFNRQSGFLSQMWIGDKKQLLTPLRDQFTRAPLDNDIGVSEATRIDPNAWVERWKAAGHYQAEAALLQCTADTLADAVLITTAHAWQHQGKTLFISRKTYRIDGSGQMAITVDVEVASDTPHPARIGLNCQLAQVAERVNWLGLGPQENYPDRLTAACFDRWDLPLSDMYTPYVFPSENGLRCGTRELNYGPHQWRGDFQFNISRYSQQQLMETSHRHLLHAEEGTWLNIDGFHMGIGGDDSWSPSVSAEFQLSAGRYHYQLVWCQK

[2] = molecular target: T1, Corticotropin-releasing factor receptor 2/Corticotropin-releasing factor-binding protein (Homo sapiens, UniProt P24387+Q13324); assay: activators of CRF receptor 2 with binding protein – uHTS hits, confirmation (AID 602473); assay type: functional; details: read-out: EC50_Mean
T1 sequence (Q13324 whole entry): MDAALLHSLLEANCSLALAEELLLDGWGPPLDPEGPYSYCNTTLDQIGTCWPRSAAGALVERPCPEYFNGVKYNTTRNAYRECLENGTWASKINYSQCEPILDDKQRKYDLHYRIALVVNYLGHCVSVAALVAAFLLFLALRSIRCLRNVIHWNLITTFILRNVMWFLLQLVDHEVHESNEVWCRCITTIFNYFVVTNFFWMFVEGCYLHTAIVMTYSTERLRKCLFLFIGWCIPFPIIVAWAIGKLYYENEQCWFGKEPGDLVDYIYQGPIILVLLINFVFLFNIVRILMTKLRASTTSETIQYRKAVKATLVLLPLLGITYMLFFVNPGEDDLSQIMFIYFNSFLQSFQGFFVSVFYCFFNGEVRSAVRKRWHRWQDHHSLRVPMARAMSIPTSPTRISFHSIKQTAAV
T1 sequence (P24387 whole entry): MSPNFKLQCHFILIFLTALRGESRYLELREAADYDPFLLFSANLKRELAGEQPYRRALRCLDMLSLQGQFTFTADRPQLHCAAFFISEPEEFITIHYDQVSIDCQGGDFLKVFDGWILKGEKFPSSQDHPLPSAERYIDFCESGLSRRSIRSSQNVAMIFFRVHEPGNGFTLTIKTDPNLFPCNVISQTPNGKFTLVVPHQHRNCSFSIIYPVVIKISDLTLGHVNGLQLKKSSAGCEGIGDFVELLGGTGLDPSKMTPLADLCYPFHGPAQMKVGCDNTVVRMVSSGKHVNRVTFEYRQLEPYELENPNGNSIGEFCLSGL

[3] = NIH3T3 cell viability loss – ATP luminescence, mouse fibroblasts, counter-screen, dose response (AID 2010); assay type: functional, cell-based;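 also: cells exposed to compound for about 90 hours before reading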
[4] = molecular target: T2, Type-1 angiotensin II receptor (Homo sapiens, UniProt P30556); assay: antagonism of angiotensin II type 1 receptor – cell-based, uHTS hits, selectivity assay for APJ receptor antagonist project, dose response (AID 463214); assay type: functional;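 also: antagonist potency against angiotensin II stimulated AT1 response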
T2 sequence (P30556 whole entry): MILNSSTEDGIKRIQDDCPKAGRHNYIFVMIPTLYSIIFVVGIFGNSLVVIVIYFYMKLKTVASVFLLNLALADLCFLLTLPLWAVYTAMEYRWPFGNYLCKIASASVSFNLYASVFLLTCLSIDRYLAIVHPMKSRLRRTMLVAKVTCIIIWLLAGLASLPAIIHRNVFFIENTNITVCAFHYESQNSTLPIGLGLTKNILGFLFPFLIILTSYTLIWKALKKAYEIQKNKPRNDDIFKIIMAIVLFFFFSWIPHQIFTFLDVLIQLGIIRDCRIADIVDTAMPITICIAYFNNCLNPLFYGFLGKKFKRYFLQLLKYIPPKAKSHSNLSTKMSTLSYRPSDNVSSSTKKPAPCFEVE

INS1 = assay: INS-1E survival protection against cytokine death – cell-based, luminescence, retest, dose response (AID 449756); assay type: functional; details: Rattus norvegicus;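 also: cell death triggered by IL-1 beta plus TNF-alpha plus IFN-gamma mixture; protective hits raise ATP signal compared with cytokine alone wells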
Beta Lactamase = Beta Lactamase (Pseudomonas aeruginosa, UniProt Q932Y6); assay: BLA reporter interference, concentration series – BLA reporter cells, FRET fluorescence, artefact control for TLR9-MyD88 binding inhibitor project, dose response (AID 588341); assay type: cell-based;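 also: cell based assay in CHO-K1 cells stably expressing beta-lactamase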
Sequence of Beta Lactamase (Q932Y6 whole entry): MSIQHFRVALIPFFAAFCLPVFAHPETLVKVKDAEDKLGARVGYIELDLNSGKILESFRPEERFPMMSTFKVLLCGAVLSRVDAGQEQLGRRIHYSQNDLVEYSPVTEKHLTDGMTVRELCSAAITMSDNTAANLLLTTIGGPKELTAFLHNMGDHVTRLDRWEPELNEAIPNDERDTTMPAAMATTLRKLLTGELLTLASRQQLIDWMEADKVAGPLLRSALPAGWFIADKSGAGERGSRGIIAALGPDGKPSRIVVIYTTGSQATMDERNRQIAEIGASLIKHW

[5] = molecular target: T3, Microphthalmia-associated transcription factor (Homo sapiens, UniProt O75030); assay: reducers of TRPM1 reporter luminescence, concentration series – cell-based, SK-MEL-5, cherry-picked, set 3, MITF inhibitor project, dose response (AID 493073); assay type: functional;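 also: SK-MEL-5 melanoma cells with luciferase driven by the MITF target TRPM1 promoter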
T3 sequence (O75030 whole entry): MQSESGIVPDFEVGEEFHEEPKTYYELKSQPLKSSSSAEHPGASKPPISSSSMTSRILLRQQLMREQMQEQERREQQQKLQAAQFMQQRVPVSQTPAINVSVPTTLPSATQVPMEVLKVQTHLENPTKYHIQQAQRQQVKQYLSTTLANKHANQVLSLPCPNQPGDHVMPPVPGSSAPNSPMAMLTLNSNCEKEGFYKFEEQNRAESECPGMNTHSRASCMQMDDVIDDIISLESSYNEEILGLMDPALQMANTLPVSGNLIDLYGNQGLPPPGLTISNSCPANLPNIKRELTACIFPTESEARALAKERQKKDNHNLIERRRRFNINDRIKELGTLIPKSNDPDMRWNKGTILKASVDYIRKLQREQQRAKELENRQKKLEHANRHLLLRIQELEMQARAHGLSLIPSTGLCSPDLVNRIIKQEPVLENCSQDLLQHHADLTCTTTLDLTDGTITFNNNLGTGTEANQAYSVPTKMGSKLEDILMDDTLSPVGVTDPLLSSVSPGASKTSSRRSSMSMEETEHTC

CHO = CHO cell viability loss, potency – luminescence, cytotoxicity control for TLR9-MyD88 binding inhibitor project, dose response (AID 588339); assay type: functional, cell-based, hamster; details: Cricetulus griseus;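 also: CHO cells stably coexpressing TLR9 and MyD88 fusions from primary screen; compound exposure lasted 48 hours before viability readout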
[6] = Fluorescence-based cell-based high throughput dose response assay for inhibitors of the interaction of nucleotide-binding oligomerization domain containing 2 (NOD2) and the receptor-interacting serine-threonine kinase 2 (RIPK2).; assay type: functional; details: Homo sapiens
[7] = Luminescence Cell-Based Dose Retest to Confirm Inhibitors of Cancer Stem Cells. [Related pubchem assays (depositor defined):AID2717, AID2721]; assay type: functional; details: Homo sapiens
[8] = molecular target: T4, Sentrin-specific protease 8 (Homo sapiens, UniProt Q96LD8); assay type: functional;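 also: luminescence read-out of SENP8 inhibition, dose-response confirmation following an ultra-high-throughput screen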
T4 sequence (Q96LD8 whole entry): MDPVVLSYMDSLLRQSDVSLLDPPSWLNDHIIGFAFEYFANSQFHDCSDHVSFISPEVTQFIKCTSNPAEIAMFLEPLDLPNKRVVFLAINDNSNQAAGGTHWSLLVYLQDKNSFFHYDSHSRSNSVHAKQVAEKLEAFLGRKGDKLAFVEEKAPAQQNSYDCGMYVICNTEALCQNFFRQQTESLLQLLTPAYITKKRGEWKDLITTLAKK

Caspase-3 = molecular target: T5, Caspase-3 (Homo sapiens, UniProt P42574); assay type: functional;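 also: Dose-response selectivity test against caspase-3 for candidate inhibitors of sentrin-specific proteases (SENPs)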
T5 sequence (P42574 whole entry): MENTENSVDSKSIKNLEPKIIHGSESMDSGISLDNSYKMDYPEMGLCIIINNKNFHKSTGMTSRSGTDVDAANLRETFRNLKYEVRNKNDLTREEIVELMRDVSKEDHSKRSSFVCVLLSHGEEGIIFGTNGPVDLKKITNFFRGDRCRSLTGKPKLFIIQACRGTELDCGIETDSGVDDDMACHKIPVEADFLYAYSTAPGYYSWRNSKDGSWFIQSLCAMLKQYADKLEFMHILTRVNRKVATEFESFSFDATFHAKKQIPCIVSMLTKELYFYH

[9] = molecular target: T6, Sentrin-specific protease 7 (Homo sapiens, UniProt Q9BQF6); assay type: functional;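 also: Luminescence-based dose-response confirmation of ultra-high-throughput screening hits, measuring inhibition of SENP7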
T6 sequence (Q9BQF6 whole entry): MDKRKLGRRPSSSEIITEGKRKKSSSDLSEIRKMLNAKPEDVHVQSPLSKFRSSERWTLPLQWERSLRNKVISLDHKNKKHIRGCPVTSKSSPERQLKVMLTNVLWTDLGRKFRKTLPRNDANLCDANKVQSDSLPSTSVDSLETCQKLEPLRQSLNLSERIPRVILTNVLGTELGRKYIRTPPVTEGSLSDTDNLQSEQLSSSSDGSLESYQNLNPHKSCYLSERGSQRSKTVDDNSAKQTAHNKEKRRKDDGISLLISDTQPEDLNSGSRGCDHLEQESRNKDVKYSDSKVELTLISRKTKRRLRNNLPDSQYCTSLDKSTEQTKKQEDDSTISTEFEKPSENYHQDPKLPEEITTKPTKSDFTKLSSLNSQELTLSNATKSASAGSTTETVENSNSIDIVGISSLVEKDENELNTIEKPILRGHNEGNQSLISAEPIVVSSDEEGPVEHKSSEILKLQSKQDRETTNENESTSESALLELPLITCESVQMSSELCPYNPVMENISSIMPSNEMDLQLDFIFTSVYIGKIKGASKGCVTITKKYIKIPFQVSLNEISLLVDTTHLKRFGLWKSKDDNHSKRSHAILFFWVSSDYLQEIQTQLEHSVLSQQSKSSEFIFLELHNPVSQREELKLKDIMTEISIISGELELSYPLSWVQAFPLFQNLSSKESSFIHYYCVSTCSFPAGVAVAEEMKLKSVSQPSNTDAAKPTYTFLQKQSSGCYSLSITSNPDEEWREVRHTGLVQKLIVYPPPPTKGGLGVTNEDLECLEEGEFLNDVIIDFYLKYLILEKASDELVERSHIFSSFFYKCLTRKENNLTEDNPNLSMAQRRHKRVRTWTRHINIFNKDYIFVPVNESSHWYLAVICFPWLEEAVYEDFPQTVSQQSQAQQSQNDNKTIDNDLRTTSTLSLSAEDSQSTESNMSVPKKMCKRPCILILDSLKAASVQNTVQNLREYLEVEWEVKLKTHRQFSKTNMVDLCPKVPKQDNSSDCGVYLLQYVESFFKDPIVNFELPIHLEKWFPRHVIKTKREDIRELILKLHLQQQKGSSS

[10] = molecular target: T7, Sentrin-specific protease 6 (Homo sapiens, UniProt Q9GZR1); assay type: functional;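 also: Luminescence-based dose-response confirmatory assay of SENP6 inhibition, following up an ultra-high-throughput screen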
T7 sequence (Q9GZR1 whole entry): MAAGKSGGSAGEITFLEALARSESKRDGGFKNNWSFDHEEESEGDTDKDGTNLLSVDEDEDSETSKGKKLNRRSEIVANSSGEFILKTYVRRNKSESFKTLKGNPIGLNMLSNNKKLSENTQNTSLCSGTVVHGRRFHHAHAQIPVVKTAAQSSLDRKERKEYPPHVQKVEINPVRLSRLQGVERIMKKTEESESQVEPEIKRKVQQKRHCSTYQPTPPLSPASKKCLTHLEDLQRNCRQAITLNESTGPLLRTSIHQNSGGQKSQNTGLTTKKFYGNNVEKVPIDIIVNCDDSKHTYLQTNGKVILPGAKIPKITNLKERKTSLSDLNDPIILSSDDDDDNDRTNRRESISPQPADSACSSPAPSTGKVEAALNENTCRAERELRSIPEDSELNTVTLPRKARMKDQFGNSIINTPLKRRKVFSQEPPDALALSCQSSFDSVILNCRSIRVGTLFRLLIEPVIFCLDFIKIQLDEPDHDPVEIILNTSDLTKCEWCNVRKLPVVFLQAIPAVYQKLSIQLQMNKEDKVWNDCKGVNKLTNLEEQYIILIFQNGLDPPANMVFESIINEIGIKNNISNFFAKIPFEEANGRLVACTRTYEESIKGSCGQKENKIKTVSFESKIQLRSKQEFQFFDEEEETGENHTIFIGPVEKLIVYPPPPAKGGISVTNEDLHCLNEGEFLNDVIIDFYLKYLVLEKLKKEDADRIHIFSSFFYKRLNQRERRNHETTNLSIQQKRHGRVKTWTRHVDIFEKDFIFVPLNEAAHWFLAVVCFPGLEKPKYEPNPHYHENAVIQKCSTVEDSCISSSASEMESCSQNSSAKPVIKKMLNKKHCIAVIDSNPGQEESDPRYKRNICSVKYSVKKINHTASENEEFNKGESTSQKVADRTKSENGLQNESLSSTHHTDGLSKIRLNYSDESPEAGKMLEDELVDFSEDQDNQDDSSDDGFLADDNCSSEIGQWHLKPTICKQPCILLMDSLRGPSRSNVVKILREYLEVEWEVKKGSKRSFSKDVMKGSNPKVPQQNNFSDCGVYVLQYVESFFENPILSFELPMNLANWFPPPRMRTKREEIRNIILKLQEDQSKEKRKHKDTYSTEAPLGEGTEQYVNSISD

IC50 (Caspase-3) | IC50 [9] | IC50 [10] | Structure (SMILES) | EC50 [1] | EC50 (Beta-galactosidase) | EC50 [2] | EC50 [3] | IC50 [4] | AC50 (INS1) | IC50 (Beta Lactamase) | AC50 [5] | IC50 (CHO) | IC50 [6] | AC50 [7] | IC50 [8]
 |  |  | Cc1ccc(C)c2nc3sc(C(=O)N4CCCc5ccccc54)c(N)c3cc12 | 1.56 µM (active) | > 40 µM (inactive) | 8.83 µM (active) | > 60 µM (not active) | > 40 µM (not active) |  |  |  |  |  |  | 
 |  |  | CCn1c(=O)c([N+](=O)[O-])c(Cl)c2ccccc21 | 1.89 µM (active) | > 40 µM (inactive) |  | 15 µM (active) | 2.22 µM (active) | 5.02 µM (active) | 28.6 µM (inactive) | 7.21 µM (active) | 1.03 µM (active) | 0.622 µM (active) | 1.85 µM (active) | 
 |  |  | COc1ccc(C(=O)CNc2cccc(F)c2)cc1 |  | > 40 µM (inactive) |  |  | 28 µM (not active) |  |  |  |  |  |  | 
5.39 µM (active) | 5.32 µM (active) | 7.6 µM (active) | Cc1ccc2oc(-c3ccccc3)nc2c1 |  |  |  |  |  |  |  |  |  |  |  | 39.3 µM (active)
